Results published in ChEMBL document CHEMBL1201862, “PubChem BioAssay data set” (2004).
Structures can show the parent of a compound that is named as a salt.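 Each compound was tested at five concentrations against cells in 96-well plates for 48 hours. GI50 is the concentration that inhibits growth by half.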 Active and inactive are the calls of the source. Rule as the data show it: active = GI50 up to about 1.1 µM and inactive = higher.

Experiments:
Assay in all cases: NCI-60 cell line screen, 48 h
LXFL 529 = tested on: LXFL 529
KM-20L2 = tested on: KM-20L2
DMS-114 = tested on: DMS-114
DLD-1 = tested on: DLD-1
DMS-273 = tested on: DMS-273
RXF 631 = tested on: RXF 631
Hs-578T = tested on: Hs-578T
BT-549 = tested on: BT-549
T47D = tested on: T47D

Measured: GI50

O=c1cc2n(c(=O)[nH]1)C1OC(C(O)C1O)[C@H]2CCO (some centres undefined)
inactive: LXFL 529 > 100 µM | KM-20L2 > 100 µM | DMS-114 > 100 µM | DLD-1 > 100 µM | DMS-273 > 100 µM

O=C(CC1(O)C(=O)Nc2c(Cl)ccc(Cl)c21)c1ccc(Cl)cc1Cl (centres undefined)
inactive: LXFL 529 14.6 µM | KM-20L2 35.4 µM | DMS-114 19.3 µM | DLD-1 28 µM | DMS-273 16.4 µM

CCC1CCC2CCCC(C)N12 (centres undefined)
inactive: LXFL 529 > 100 µM | KM-20L2 > 100 µM | RXF 631 > 100 µM | DMS-114 > 100 µM | DLD-1 > 100 µM | DMS-273 > 100 µM

Cc1cc(C)c(-n2c(-c3ccc(Br)cc3)cs/c2=N\N=C2C=C(C(C)(C)C)C(=O)C(C(C)(C)C)=C2)c(C)c1
inactive: Hs-578T 15.3 µM | BT-549 > 100 µM | LXFL 529 > 100 µM | KM-20L2 > 100 µM | RXF 631 > 100 µM | T47D > 100 µM | DMS-114 > 100 µM | DLD-1 > 100 µM | DMS-273 > 100 µM

CC(=O)NNc1ncc(C(=O)/C=C/c2ccccc2C)s1
inactive: KM-20L2 > 100 µM | RXF 631 > 100 µM | DMS-114 > 100 µM | DLD-1 > 100 µM | DMS-273 > 100 µM

[O-][S+]1Cc2ccccc2CSS1 (centres undefined)
inactive: LXFL 529 14.1 µM | KM-20L2 16.9 µM | RXF 631 19.8 µM | DMS-114 17.2 µM | DLD-1 18.1 µM | DMS-273 11.8 µM

COC(=O)C1=CCS(=O)(=O)C1
inactive: LXFL 529 > 100 µM | KM-20L2 > 100 µM | RXF 631 > 100 µM | DMS-114 > 100 µM | DLD-1 > 100 µM

O=C(c1ccccc1)[C@H]1Nc2ccc(Cl)cc2[C@H]2c3ccccc3O[C@H]21
inactive: LXFL 529 15 µM | KM-20L2 14.9 µM | DMS-114 15.8 µM | DLD-1 14 µM | DMS-273 18.7 µM

CC(=O)O[C@H]1CC2C=CC3C(CCC31)O2 (some centres undefined)
inactive: LXFL 529 > 100 µM | KM-20L2 > 100 µM | DMS-114 > 100 µM | DLD-1 > 100 µM | DMS-273 > 100 µM

N#CC(/C(=N/NC(N)=S)C(=O)Nc1cccc(Cl)c1)c1ccccc1 (centres undefined)
inactive: LXFL 529 > 100 µM | KM-20L2 > 100 µM | RXF 631 > 100 µM | DMS-114 > 100 µM | DLD-1 > 100 µM | DMS-273 > 100 µM

O=C1C2C(C(=O)N1Cc1ccccc1)N(Cc1ccccc1)C(=O)N2Cc1ccccc1 (centres undefined)
inactive: LXFL 529 > 100 µM | KM-20L2 > 100 µM | RXF 631 > 100 µM | DMS-114 > 100 µM | DLD-1 > 100 µM

CCN(CC)CC(=O)/C=C/c1ccc(C)cc1
inactive: LXFL 529 18.6 µM | KM-20L2 20.6 µM | DMS-114 21.9 µM | DLD-1 25.1 µM | DMS-273 22.2 µM

COc1ccc(C2(CN(C)C)COc3cc(OC)c(OC)cc3C2=O)cc1OC (centres undefined)
inactive: LXFL 529 20.1 µM | KM-20L2 > 100 µM | RXF 631 75.7 µM | DMS-114 23.6 µM | DLD-1 20.1 µM

CCCCC1(C(NC(=O)c2ccccc2Cl)c2ccncc2)C(=O)N(c2ccccc2)N(c2ccccc2)C1=O (centres undefined)
inactive: LXFL 529 36.2 µM | KM-20L2 59.7 µM | DMS-114 41.4 µM | DLD-1 39.7 µM | DMS-273 27 µM

CCCCCCCCc1cc2c(O)c(c1)Cc1cc(CCCCCCCC)cc(c1O)Cc1cc(CCCCCCCC)cc(c1O)Cc1cc(CCCCCCCC)cc(c1O)Cc1cc(CCCCCCCC)cc(c1O)Cc1cc(CCCCCCCC)cc(c1O)C2
inactive: LXFL 529 > 100 µM | KM-20L2 > 100 µM | RXF 631 > 100 µM | DMS-114 > 100 µM | DLD-1 > 100 µM

O=c1/c(=C/c2ccc(Cl)cc2Cl)sc2nc3ccccc3n12
inactive: LXFL 529 > 100 µM | KM-20L2 > 100 µM | RXF 631 > 100 µM | DMS-114 > 100 µM | DLD-1 > 100 µM | DMS-273 > 100 µM

CO[C@H]1CC[C@]2(C)C3=CC[C@@]4(C)C(CC[C@@H]4C(C)CC[C@@H](C)C(C)C)C(=CCC2C1)O3 (some centres undefined)
inactive: LXFL 529 > 25 µM | KM-20L2 > 25 µM | DMS-114 > 25 µM | DLD-1 > 25 µM | DMS-273 > 25 µM

Cc1nccc2c1[nH]c1cc(O)ccc12 [HARMOL HYDROCHLORIDE]
inactive: LXFL 529 > 100 µM | KM-20L2 > 100 µM | RXF 631 > 100 µM | DMS-114 70.3 µM | DLD-1 51.1 µM | DMS-273 54.5 µM
